How the values were obtained:
Assay type in all cases: physicochemical
[1] = Stability of the Type A crystal polymorph (stated as a conclusion, no method given); settings: solid crystal polymorph identified as Type A
[2] = Solubility of the Type A crystal polymorph (stated as a conclusion, no method given); settings: solid crystal polymorph identified as Type A
[3] = Decomposition of the product in hot water, observed during work-up; settings: in water at 70-80° C.
Protocol: The reaction mixtures were filtered to remove solvents. The wet cake was charged to a reactor. […] 6 kg of MS001 Silica Thiol was added to the filtrate at about 60-70° C., stirred for 1 hour, and filtered through a pad of fresh Celite.
A total of 20 kg of a compound of Formula (X) was made from 56.6 kg of a compound of Formula (IV), with 98.0% and a 73.5% yield. The yield of the manufacture is consistent to the Lab batch.

SMILES: N[C@@H](COC(=O)CCC(=O)O)C(=O)O [Formula (X)]
- stability of the solid crystal polymorph Type A [1]: highly stable
- solubility of the solid crystal polymorph Type A [2]: soluble
- stability in water at elevated temperature [3]: could be decomposed in water

From patent US20210323908A1, “PROCESS FOR PRODUCING TCA CYCLE INTERMEDIATE CONJUGATES” (IMBRIA PHARMACEUTICALS, INC., priority 2020, published 2021)
